This note sets out measurements from patent US20260232666A1, “COMPOSITIONS AND METHODS FOR INHIBITION OF RAS” (TheRas, Inc., priority 2023, published 2026).

Each structure is given as a SMILES string. Bounds are passed on as bounds.

Assay [1] has as its target T1, GTP-loaded KRAS4b (amino acids 1-169) G12C/C118S protein (Homo sapiens, UniProt P01116, C118S/G12C).
T1 construct: KRAS4b (amino acids 1-169) G12C/C118S protein; made in house
Kind of assay: Covalent cysteine 12 modification by MALDI-TOF MS, GTP-loaded KRAS G12C. Particulars: 15 minutes reaction time point. Type of assay: binding. In outline: (§1)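 Covalent adduct formation measured by linear-mode MALDI-TOF MS as modified peak height over summed peak heights, 15 min time point reported. Reactions: KRAS4b 1-169 G12C/C118S (1 μM, loaded with GppNHp, GTP or GDP) plus compound at 1:2.5 ratio, pH 7.3 HEPES/NaCl/MgCl2, room temperature.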

Assay [2] concerns the target T2, Avi-KRAS G12C (1-169) GppNHp/RAF1 RBD-3×FLAG (52-151) (Homo sapiens, UniProt P01116, G12C).
T2 construct: Avi-KRAS G12C (1-169) GppNHp; Avi (N)
Kind of assay: Raf1 RBD-KRAS G12C-GppNHp disruption assay (protein:protein interaction HTRF). Type of assay: biochemical. In outline:
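HTRF measuring RAF1 RBD binding to GppNHp-loaded KRAS G12C (50 nM) in Tris pH 7.5, 100 mM NaCl, 5 mM MgCl2, 10% DMSO. Compound, KRAS, RBD and detection reagents each added sequentially with 1 h room-temperature incubations; 10-point titration; excitation 320 nm, emission 615 nm; activity as % of DMSO; IC50 derived.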

The target of assay [3] is T3, GDP-loaded KRAS4b (amino acids 1-169) G12C/C118S protein (Homo sapiens, UniProt P01116, C118S/G12C).
T3 construct: KRAS4b (amino acids 1-169) G12C/C118S protein; made in house
In words: Covalent cysteine 12 modification by MALDI-TOF MS, GDP-loaded KRAS G12C. The format is binding. Particulars: 15 minutes reaction time point. In short, it runs like this: as §1

In the case of `C=CC(=O)N1CC[C@@H](N(C)c2nc(OC[C@@]34CCCN3C[C@H](F)C4)nc3c(F)c(-c4ccc(F)c5sc(N)c(C#N)c45)c(Cl)cc23)[C@@H]1C` (atropisomer, axis not shown) [Compound 68], in assay [1], the “GTP-KRAS G12C percent of modification” value is listed as “A (percent of modification ≥70%)”. The IC50 in assay [2] is under 500 nM. Besides, the “GDP-KRAS G12C percent of modification” value in assay [3] is “A (percent of modification ≥70%)”.

In the case of `C=CC(=O)N1CC[C@@H](N(C)c2nc(OC[C@@]34CCCN3C[C@H](F)C4)nc3c(F)c(-c4ccc(F)c5sc(N)c(C#N)c45)c(Cl)cc23)[C@@H]1C` (atropisomer, axis not shown) [Compound 69], the “GTP-KRAS G12C percent of modification” value in assay [1] is “D (percent of modification <10%)”. The same molecule gave a 50% inhibitory concentration (IC50) in assay [2] of 500 to 5000 nM. Besides, in assay [3], the “GDP-KRAS G12C percent of modification” value is recorded as “D (percent of modification <10%)”.

For the molecule `C=CC(=O)N1CCC(N(C)c2nc(OC[C@@H]3CCCN3C3CC3)nc3c(F)c(-c4ccc(F)c5sc(N)c(C#N)c45)c(C(F)(F)F)cc23)[C@H]1C` (some centres unmarked) [Compound 1], in assay [1], the “GTP-KRAS G12C percent of modification” value is listed as “C (10%≤percent of modification <50%)”. Moreover, the IC50 in assay [2] was under 500 nM. For the same molecule, in assay [3], the “GDP-KRAS G12C percent of modification” value is given as “B (50≤percent of modification <70%)”.

Regarding `C=CC(=O)N1CCC(N(C)c2nc(OC[C@@]34CCCN3C[C@H](F)C4)nc3c(F)c(-c4ccc(F)c5sc(N)c(C#N)c45)c(Cl)cc23)[C@H]1CC` (some centres unmarked) [Compound 2], in assay [1], the “GTP-KRAS G12C percent of modification” value is given as “D (percent of modification <10%)”. The IC50 in assay [2] fell in the range of 500 to 5000 nM. In assay [3], the “GDP-KRAS G12C percent of modification” value was “B (50≤percent of modification <70%)”.

Take `C=CC(=O)N1CCC(N(C)c2nc(OC[C@@]34CCCN3C[C@H](F)C4)nc3c(F)c(-c4ccc(F)c5sc(N)c(C#N)c45)c(C(F)(F)F)cc23)[C@H]1CC` (some centres unmarked) [Compound 3]: the “GTP-KRAS G12C percent of modification” value in assay [1] was “B (50≤percent of modification <70%)”. This molecule also had an IC50 in assay [2] of under 500 nM. In assay [3], the “GDP-KRAS G12C percent of modification” value is recorded as “C (10%≤percent of modification <50%)”.

Regarding `C=CC(=O)N1C[C@H]2C[C@@H]1CN2c1nc(OC[C@@]23CCCN2C[C@H](F)C3)nc2c(F)c(-c3ccc(F)c4sc(N)c(C#N)c34)c(C(F)(F)F)cc12` [Compound 37], the “GTP-KRAS G12C percent of modification” value in assay [1] is listed as “D (percent of modification <10%)”. The IC50 in assay [2] is 500 to 5000 nM. In addition, the “GDP-KRAS G12C percent of modification” value in assay [3] is listed as “C (10%≤percent of modification <50%)”.

Consider `C=CC(=O)N1CC[C@@H](N(CC)c2nc(OC[C@@]34CCCN3C[C@H](F)C4)nc3c(F)c(-c4ccc(F)c5sc(N)c(C#N)c45)c(C(F)(F)F)cc23)[C@H]1CC` [Compound 39], for which the “GTP-KRAS G12C percent of modification” value in assay [1] is “C (10%≤percent of modification <50%)”. Further, in assay [2], the IC50 was under 500 nM. In addition, the “GDP-KRAS G12C percent of modification” value in assay [3] is listed as “C (10%≤percent of modification <50%)”.

Turning to `C=CC(=O)N1CC[C@@H](N(CC)c2nc(OC[C@@]34CCCN3C[C@H](F)C4)nc3cc(-c4ccc(F)c5sc(N)c(C#N)c45)c(C#N)cc23)[C@@H]1CC` [Compound 40], the “GTP-KRAS G12C percent of modification” value in assay [1] is on record as “D (percent of modification <10%)”. Moreover, the IC50 in assay [2] lay within 500 to 5000 nM. Further, in assay [3], the “GDP-KRAS G12C percent of modification” value is recorded as “A (percent of modification ≥70%)”.

`C=CC(=O)N1CC[C@@H](N(CC)c2nc(OC[C@@]34CCCN3C[C@H](F)C4)nc3cc(-c4ccc(F)c5sc(N)c(C#N)c45)c(F)cc23)[C@@H]1CC` [Compound 41]: the “GTP-KRAS G12C percent of modification” value in assay [1] was “D (percent of modification <10%)”. In addition, the concentration for half-maximal inhibition (IC50) in assay [2] lay in the range of 500 to 5000 nM. Moreover, in assay [3], the “GDP-KRAS G12C percent of modification” value is reported as “A (percent of modification ≥70%)”.

For the molecule `C=CC(=O)N1CC[C@@H](N(C)c2nc(OC[C@@]34CCCN3C[C@H](F)C4)nc3cc(-c4ccc(F)c5sc(N)c(C#N)c45)c(C#N)cc23)[C@H]1CC` [Compound 42], in assay [1], the “GTP-KRAS G12C percent of modification” value is listed as “A (percent of modification ≥70%)”. The concentration for half-maximal inhibition (IC50) in assay [2] is under 500 nM. In addition, in assay [3], the “GDP-KRAS G12C percent of modification” value is “A (percent of modification ≥70%)”.

Consider `C=CC(=O)N1CC[C@@H](N(CC)c2nc(OC[C@@H]3C[C@@H](OC)CN3C)nc3c(F)c(-c4ccc(F)c5sc(N)c(C#N)c45)c(C(F)(F)F)cc23)[C@H]1C` [Compound 45, 4-(4-(((2R,3R)-1-acryloyl-2-methylpyrrolidin-3-yl)(ethyl)amino)-8-fluoro-2-(((2S,4R)-4-methoxy-1-methylpyrrolidin-2-yl)methoxy)-6-(trifluoromethyl)quinazolin-7-yl)-2-amino-7-fluorobenzo[b]thiophene-3-carbonitrile], for which the “GTP-KRAS G12C percent of modification” value in assay [1] is “B (50≤percent of modification <70%)”. The same molecule returned a half-inhibitory concentration (IC50) in assay [2] of under 500 nM. Further, the “GDP-KRAS G12C percent of modification” value in assay [3] is given as “A (percent of modification ≥70%)”.

On to `C=CC(=O)N1CC2CC(C1)N2c1nc(OC[C@@]23CCCN2C[C@H](F)C3)nc2c(F)c(-c3ccc(F)c4sc(N)c(C#N)c34)c(C(F)(F)F)cc12` [Compound 46], for which the “GTP-KRAS G12C percent of modification” value in assay [1] is “D (percent of modification <10%)”. Besides, the IC50 in assay [2] fell in the range of 500 to 5000 nM. For the same molecule, the “GDP-KRAS G12C percent of modification” value in assay [3] is given as “C (10%≤percent of modification <50%)”.

Take `C=CC(=O)N1CC2CCC(C1)N2c1nc(OC[C@@]23CCCN2C[C@H](F)C3)nc2c(F)c(-c3ccc(F)c4sc(N)c(C#N)c34)c(C(F)(F)F)cc12` [Compound 49]: in assay [1], the “GTP-KRAS G12C percent of modification” value is listed as “D (percent of modification <10%)”. The molecule also registered a half-inhibitory concentration (IC50) in assay [2] of under 500 nM. The “GDP-KRAS G12C percent of modification” value in assay [3] was “A (percent of modification ≥70%)”.

Regarding `C=CC(=O)N1CC[C@@H](N(C)c2nc(OC[C@@H]3CCCN3C)nc3c(F)c(-c4ccc(F)c5sc(N)c(C#N)c45)c(Cl)cc23)[C@H]1C` [Compound 59], the “GTP-KRAS G12C percent of modification” value in assay [1] is reported as “A (percent of modification ≥70%)”. The IC50 in assay [2] was under 500 nM.

Turning to `C=CC(=O)N1CC[C@@H](N(C)c2nc(OC[C@@H]3C[C@@H](F)CN3C)nc3c(F)c(-c4ccc(F)c5sc(N)c(C#N)c45)c(Cl)cc23)[C@H]1C` [Compound 61], the “GTP-KRAS G12C percent of modification” value in assay [1] is “C (10%≤percent of modification <50%)”. For the same molecule, the IC50 in assay [2] was under 500 nM.

Regarding `C=CC(=O)N1CC[C@@H](N(C)c2nc(OC[C@@H]3CC4(CC4)CN3C)nc3c(F)c(-c4ccc(F)c5sc(N)c(C#N)c45)c(Cl)cc23)[C@H]1C` [Compound 64], the “GTP-KRAS G12C percent of modification” value in assay [1] was “B (50≤percent of modification <70%)”. In assay [2], this molecule displayed a 50% inhibitory concentration (IC50) of under 500 nM.

As for `C=CC(=O)N1CC[C@@H](N(CC)c2nc(OC[C@@H]3CC4(CC4)CN3C)nc3c(F)c(-c4ccc(F)c5sc(N)c(C#N)c45)c(C(F)(F)F)cc23)[C@H]1C` [Compound 65], in assay [1], the “GTP-KRAS G12C percent of modification” value is recorded as “A (percent of modification ≥70%)”. Besides, the IC50 in assay [2] was under 500 nM.

With `C=CC(=O)N1CC[C@@H](N(CC)c2nc(OC[C@@H]3CCCN3C)nc3c(F)c(-c4ccc(F)c5sc(N)c(C#N)c45)c(C(F)(F)F)cc23)[C@H]1C` [Compound 66], the “GTP-KRAS G12C percent of modification” value in assay [1] is reported as “A (percent of modification ≥70%)”. The same molecule displayed an IC50 in assay [2] of under 500 nM.

On to `C=CC(=O)N1CC[C@@H](N(C)c2nc(OC[C@@H]3C[C@@H](OC)CN3C)nc3c(F)c(-c4ccc(F)c5sc(N)c(C#N)c45)c(Cl)cc23)[C@@H]1C` [Compound 79], for which, in assay [1], the “GTP-KRAS G12C percent of modification” value is “C (10%≤percent of modification <50%)”. For the same molecule, the IC50 in assay [2] was under 500 nM.

Take `C=CC(=O)N1CC[C@@H](N(C)c2nc(OC[C@@H]3CCCN3CC)nc3c(F)c(-c4ccc(F)c5sc(N)c(C#N)c45)c(Cl)cc23)[C@@H]1C` [Compound 84]: the “GTP-KRAS G12C percent of modification” value in assay [1] is recorded as “B (50≤percent of modification <70%)”. Further, the IC50 in assay [2] was under 500 nM.

Usually IC50 stands for the concentration that inhibits the measured activity by half. A lower IC50 goes with higher potency.
